Data published in ChEMBL document CHEMBL2074072, “Transport of glutathione, glucuronate, and sulfate conjugates by the MRP gene-encoded conjugate export pump” (Cancer Res, 1996).

molecular target: Multidrug resistance-associated protein 1 (Homo sapiens, UniProt P33527); assay: TP_TRANSPORTER: uptake in membrane vesicle from MRP1-expressing HeLa cells; type: functional, cell membranes
Sequence (P33527 whole entry): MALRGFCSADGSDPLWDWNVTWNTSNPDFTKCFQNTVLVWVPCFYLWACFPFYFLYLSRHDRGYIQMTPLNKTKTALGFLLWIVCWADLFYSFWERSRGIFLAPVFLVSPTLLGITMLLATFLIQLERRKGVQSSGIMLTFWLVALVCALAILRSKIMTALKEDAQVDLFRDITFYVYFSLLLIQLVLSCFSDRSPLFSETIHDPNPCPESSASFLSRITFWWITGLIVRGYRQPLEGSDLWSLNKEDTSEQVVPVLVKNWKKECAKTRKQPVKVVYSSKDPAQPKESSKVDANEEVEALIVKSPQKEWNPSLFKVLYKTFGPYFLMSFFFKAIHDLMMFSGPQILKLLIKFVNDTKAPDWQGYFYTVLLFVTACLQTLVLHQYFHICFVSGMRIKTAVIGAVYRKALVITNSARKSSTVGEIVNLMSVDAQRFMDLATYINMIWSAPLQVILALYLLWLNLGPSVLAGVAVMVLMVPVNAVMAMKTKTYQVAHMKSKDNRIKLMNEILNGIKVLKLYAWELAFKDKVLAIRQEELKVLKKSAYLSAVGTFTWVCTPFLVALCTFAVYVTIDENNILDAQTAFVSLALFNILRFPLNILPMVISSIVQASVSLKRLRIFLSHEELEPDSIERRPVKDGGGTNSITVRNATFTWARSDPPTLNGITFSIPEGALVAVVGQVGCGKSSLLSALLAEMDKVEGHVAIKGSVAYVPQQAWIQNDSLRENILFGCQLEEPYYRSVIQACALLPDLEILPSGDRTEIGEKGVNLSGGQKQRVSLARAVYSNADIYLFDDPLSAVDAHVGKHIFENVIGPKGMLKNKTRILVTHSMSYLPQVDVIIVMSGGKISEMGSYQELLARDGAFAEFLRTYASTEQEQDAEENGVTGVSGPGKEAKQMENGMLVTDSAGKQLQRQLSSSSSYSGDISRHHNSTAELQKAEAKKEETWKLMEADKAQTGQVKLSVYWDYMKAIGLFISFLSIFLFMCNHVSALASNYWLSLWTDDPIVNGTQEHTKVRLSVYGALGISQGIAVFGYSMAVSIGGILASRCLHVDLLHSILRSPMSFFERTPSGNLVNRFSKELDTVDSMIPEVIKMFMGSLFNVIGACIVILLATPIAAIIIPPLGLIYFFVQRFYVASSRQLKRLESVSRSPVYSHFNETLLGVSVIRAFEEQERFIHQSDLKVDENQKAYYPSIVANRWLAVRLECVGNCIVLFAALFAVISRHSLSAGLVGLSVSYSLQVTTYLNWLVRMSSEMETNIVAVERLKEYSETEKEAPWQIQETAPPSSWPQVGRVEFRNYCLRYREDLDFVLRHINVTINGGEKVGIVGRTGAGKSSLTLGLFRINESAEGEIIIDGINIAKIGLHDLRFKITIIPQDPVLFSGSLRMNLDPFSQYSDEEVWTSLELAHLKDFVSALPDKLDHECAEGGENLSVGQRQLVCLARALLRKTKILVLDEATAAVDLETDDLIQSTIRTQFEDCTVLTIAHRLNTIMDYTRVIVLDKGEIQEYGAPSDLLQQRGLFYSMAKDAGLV

Activity, substrate [+]:
CCCCC/C=C\C\C=C/C=C/C=C/[C@@H](SC[C@H](NC(C)=O)C(=O)O)[C@@H](O)CCCC(=O)O
C[C@H](CCC(=O)O)[C@H]1CC[C@H]2[C@@H]3C[C@H](O[C@@H]4O[C@H](C(=O)O)[C@@H](O)[C@H](O)[C@H]4O)[C@@H]4C[C@H](O)CC[C@]4(C)[C@H]3CC[C@]12C [6alpha-Glucuronosylhyodeoxycholate]
COc1cc([C@@H]2c3cc4c(cc3[C@@H](O[C@@H]3O[C@@H]5CO[C@@H](C)O[C@H]5[C@H](O)[C@H]3O)[C@H]3COC(=O)[C@H]23)OCO4)cc(OC)c1O[C@@H]1O[C@H](C(=O)O)[C@@H](O)[C@H](O)[C@H]1O [ETOPOSIDE GLUCURONIDE]
CCCCC/C=C\C\C=C/C=C/C=C/[C@@H](SC[C@H](N)C(=O)O)[C@@H](O)CCCC(=O)O [LEUKOTRIEN E4]
CCCCC/C=C\C\C=C/C=C/C=C/[C@@H](SC[C@H](N)C(=O)NCC(=O)O)[C@@H](O)CCCC(=O)O [LEUKOTRIENE D4]
